Paper PMC5460289, “Identification of New Shikonin Derivatives as Antitumor Agents Targeting STAT3 SH2 Domain” (Scientific Reports, 2017)

How the values were obtained:
[1] = MTT anti-proliferation assay, non-tumorigenic cells; type: cell-based; conditions: human, non-tumorigenic MCF-10A cells, 24 h treatment
Procedure: Initial experiments were performed for evaluation of growth inhibition by the new compounds against six human breast cancer cell lines, including MCF-7 (ER+/PR+, HER-2-), BT474 (ER+/PR+, HER-2+), SKBR-3 (ER-/PR-/HER-2+), MDA-MB-436 (ER-/PR-/HER-2-), MDA-MB-231 (ER-/PR-/HER-2-), MDA-MB-468 (ER-/PR-/HER-2-) and non-tumorigenic MCF-10A cells. After 24 h treatment by the obtained compounds, the inhibition was assessed and the IC50 was summarized. […] Subsequently, the inhibition of STAT3 activation by PMM-172 and Stattic was evaluated using a dual-luciferase assay.
The anti-proliferative activities of the prepared compounds against MCF-7 (ER+/PR+, HER-2-), BT474 (ER+/PR+, HER-2+), SKBR-3 (ER-/PR-/HER-2+), MDA-MB-436 (ER-/PR-/HER-2-), MDA-MB-231 (ER-/PR-/HER-2-), MDA-MB-468 (ER-/PR-/HER-2-) and non-tumorigenic MCF-10A cell lines were evaluated using a standard (MTT)-based colorimetric assay with some modification. Cell lines were grown to log phase in DMEM supplemented with 10% fetal bovine serum. Cell suspensions were prepared and 100 μL/well dispensed into 96-well plates giving 10^4 cells/well. The subsequent incubation was permitted at 37 °C, 5% CO2 atmosphere for 24 h to allow the cells to reattach. Subsequently, cells were treated with the target compounds at increasing concentrations in the presence of 10% FBS for 24 h. Then, cell viability was assessed by the conventional 3-(4, 5-dimethylthiazol-2-yl)-2, 5-diphenyltetrazolium bromide (MTT) reduction assay and carried out strictly according to the manufacturer instructions. The absorbance (OD570) was read on an ELISA reader (Tecan, Austria). In all experiments, three replicate wells were used for each drug concentration. Each assay was carried out for at least three times.

[2] = test system: STAT3-TATA-Luc reporter in MDA-MB-231 cells; experiment: STAT3 dual-luciferase reporter assay; type: cell-based, human; conditions: MDA-MB-231, 24 h treatment
Procedure: Figure 3 MDA-MB-231 cells were transfected with STAT3-TATA-Luc reporter and Renilla luciferase reporter plasmids. After 24 h, cells were treated with indicated concentrations of PMM-172 or Stattic for 24 h and then luciferase intensity was measured. Results are fold change ± SD of three independent experiments, *P < 0.05, **P < 0.01.
Cells were seeded in 24 well plates and transiently transfected together with STAT3 reporter plasmid 4 × M67 pTATA TK-Luc (0.2 μg/per well, Addgene, USA) and Renilla luciferase control reporter plasmid pRL-CMV (0.1 μg/per well, promega, USA), using lipofectamine 2000 (Invitrogen, USA). Then the cells were incubated with complete medium for 24 h with PMM-172 or Stattic. Following the treatment, the cells were harvested in 100 μL of passive lysis buffer (Promega, USA) in each well. A 25 μL aliquot of cell lysate was subjected to a luciferase assay by using the dual-luciferase assay kit (Promega, USA). STAT3 luciferase activity was measured by EnVision Mutilabel Reader (Perkin Elmer, USA). Relative luciferase activity was calculated after the activity of STAT3-dependent firefly luciferase had been normalized to that of Renilla luciferase. All values are expressed as - fold induction relative to basal activity.

[3] = test system: Bcl-2, Bcl-xL, survivin and cyclin D1 in MDA-MB-231 cells; experiment: Western blot of STAT3 downstream target genes expression; type: cell-based, human; conditions: MDA-MB-231, 24 h
Procedure: Figure 7 MDA-MB-231 cells were treated with indicated concentrations of PMM-172 or Stattic for 24 h, the expression levels of STAT3 in cytoplasmic and nuclear extracts were examined and relative expression levels were analyzed by Image J software. β-actin and Lamin B1 served as markers of cytoplasmic and nuclear extractions, respectively. […] (C) MCF-10A cells were treated with the indicated concentrations of PMM-172 for 24 h. PMM-172 had no effect on the level of the pSTAT3 level in MCF-10A cells. […] Data were shown as mean ± SD from three independent experiments, **P < 0.01. Cropped blots/gels were used in the figure and the gels had been run under the same experimental conditions; the full-length blots/gels are presented in Supplementary Figure S3.
STAT3 target genes are vital to the dysfunctional biology processes induced by the aberrantly activated STAT3. Therefore, we investigated whether PMM-172 suppresses the expression of STAT3-regulated genes related to cell survival, proliferation and apoptosis in MDA-MB-231 cells.
Cells were rinsed twice with cold PBS and then lysed with RIPA buffer containing a protease inhibitor mixture at 1:100 dilution on ice for 30 min. Insoluble components of cell lysates were removed by centrifugation (4 °C, 12000 rmp, 10 min), and protein concentrations were measured using a Pierce BCA protein assay kit. […]

[4] = test system: pSTAT3 (Tyr705) in MDA-MB-231 cells; experiment: Western blot of constitutive STAT3 activation; type: cell-based, human
Source text: It has been well recognized that the aberrant activation of STAT3 contributes to malignant transformation and tumorgenesis, and its activity is ultimately dependent upon phosphorylation of residue Y705. […] In this study, the ability of PMM-172 and Stattic inhibiting the constitutive STAT3 activation in MDA-MB-231 cells was investigated. […] We further measured STAT3 phosphorylation at Tyr705 in a time-course experiment.
Figure 6 (A) PMM-172 suppressed constitutive pSTAT3 (Tyr705) in a dose-dependent manner. (B) PMM-172 suppressed constitutive pSTAT3 (Tyr705) in a time-dependent manner. (C) MDA-MB-231 cells were treated with IL-6 (20 ng/mL) or vehicle for 30 min, with or without pretreatment with PMM-172 (2 μM) for 24 h. PMM-172 inhibited IL-6 induced phosphorylation of STAT3. (D) Stattic suppressed constitutive pSTAT3 (Tyr705) in a dose-dependent manner. (E) Stattic suppressed constitutive pSTAT3 (Tyr705) in a time-dependent manner. (F) Tyrosine phosphorylation of two STAT family proteins STAT1 and STAT5 were detected with specific antibodies. […] Data were shown as mean ± SD of three independent experiments. *P < 0.05, **P < 0.01. Cropped blots/gels were used in the figure and the gels had been run under the same experimental conditions; the full-length blots/gels are presented in Supplementary Figure S2.
Cells were rinsed twice with cold PBS and then lysed with RIPA buffer containing a protease inhibitor mixture at 1:100 dilution on ice for 30 min. Insoluble components of cell lysates were removed by centrifugation (4 °C, 12000 rmp, 10 min), and protein concentrations were measured using a Pierce BCA protein assay kit. Proteins were separated by sodium dodecyl sulfate-polyacrylamide gel electrophoresis (SDS-PAGE) and transferred from the gel onto polyvinylidene difluoride (PVDF) membranes. The membranes were blocked with 5% skim milk in TBST buffer for 1 h at room temperature, and then incubated with corresponding primary antibodies diluted in 5% milk-TBST solution at 4 °C with gentle shaking overnight. After washing five times (5 min each), corresponding HRP-conjugated secondary antibodies were incubated for 1 h at room temperature. Immunoreactive bands were visualized using an ECL detection kit (Invitrogen, USA) following the manufacturer’s instruction.

In the case of `COc1cc(OC)cc(-c2nnc(SCC(=O)O[C@H](CC=C(C)C)C3=CC(=O)c4c(O)ccc(O)c4C3=O)o2)c1` [PMM-172, (R)-1-(5,8-dihydroxy-1,4-dioxo-1,4-dihydronaphthalen-2-yl)-4-methylpent-3-en-1-yl 2-((5-(3,5-dimethoxyphenyl)-1,3,4-oxadiazol-2-yl)thio)acetate], the CC50 at 24 h [1] is reported as 95.4 ± 0.62 µM, the STAT3 luciferase activity [2] is reported as “decreased the STAT3 luciferase activity in a dose-dependent manner” and the “expression of STAT3 target genes Bcl-2, Bcl-xL, survivin and cyclin D1” value [3] is reported as “down-regulated the expression of Bcl-2, Bcl-xL, survivin and cyclin D1 in a dose-dependent manner”. For the same compound, the STAT3 expression [4] was “had no effect on STAT3 expression”, the “STAT3 phosphorylation at Tyr705, time-course” value [4] was “reduced with the longer treatment” and the “level of Y705-phosphorylated STAT3 (constitutive), dose series” value [4] was “could reduce the level of Y705-phosphorylated STAT3 in MDA-MB-231 cells in a dose-dependent manner”.
